Measured values published in patent publication US8247211B2, “Glycopeptide antibiotics” (American Cyanamid Company, priority 2001, dated 2012).
Values after ≈ are worked out from the molar mass of the structure shown.

How the values were obtained:
Assay in all cases: In vitro antibacterial evaluation: minimum inhibitory concentration (MIC), broth dilution method
Format in all cases: cell-based
Escherichia coli = conditions: 5×10^5 CFU/mL, 18 hours at 35° C.
Experimental: (§1) The minimum inhibitory concentration (MIC), the lowest concentration of the antibiotic which inhibits growth of the test organism, is determined by the broth dilution method using Muller-Hinton II […] (Baltimore Biological Laboratories) following the recommendations of the National Committee for Clinical Laboratory Standards [Methods for dilution antimicrobial susceptibility tests for bacteria that grow aerobically, approved standard M7-A2, National Committee for Clinical Laboratory Standards, Villanova, Pa].
(§2) An inoculum level of 5×10^5 CFU/mL, and a range of antibiotic concentrations (64-0.06 μg/mL) is used. […] The test organisms include a spectrum of Gram-positive bacteria comprised of Staphylococcus sp., Streptococcus sp. and Enterococcus sp. These organisms include recent clinical isolates that are resistant to methicillin, penicillin and/or vancomycin.

Enterococcus sp. = conditions: broth dilution, 5×10^5 CFU/mL, 18 hours at 35° C.
Experimental: as §1, §2

Streptococcus sp. = conditions: broth dilution, 5×10^5 CFU/mL, 18 hours at 35° C.
Experimental: as §1, §2

Staphylococcus sp. = conditions: for MIC Staphylococcus aureus (ATCC 29213): strain ATCC 29213; for MIC Staphylococcus aureus (GC 1131): strain GC 1131; for MIC Staphylococcus aureus (GC 3051): strain GC 3051; for MIC Staphylococcus aureus (GC 3053): strain GC 3053; for MIC Staphylococcus aureus (GC 4541): strain GC 4541; for MIC Staphylococcus aureus (GC 4542): strain GC 4542; for MIC Staphylococcus aureus (GC 4544): strain GC 4544; for MIC Staphylococcus aureus (GC 4545): strain GC 4545
Experimental: as §1, §2

[1] = broth dilution, 5×10^5 CFU/mL, 18 hours at 35° C.
[2] = broth dilution, 18 hours at 35° C.

MIC Escherichia coli (ATCC 25922) (Escherichia coli): 64 µg/mL (≈ 44.7 µM) | MIC Escherichia coli (GC 4559) (Escherichia coli): 64 µg/mL (≈ 44.7 µM) | MIC Escherichia coli (GC 4560) (Escherichia coli): 8 µg/mL (≈ 5.59 µM) | MIC Enterococccus avium (GC 4558) (Enterococcus sp.): 8 µg/mL (≈ 5.59 µM) | MIC Enterococccus faecalis (ATCC 29212) (Enterococcus sp.): 8 µg/mL (≈ 5.59 µM) | MIC Enterococccus faecalis (GC 2691) (Enterococcus sp.): 8 µg/mL (≈ 5.59 µM) | MIC Enterococccus faecalis (GC 3059) (Enterococcus sp.): 8 µg/mL (≈ 5.59 µM) | MIC Enterococccus faecalis (GC 4552) (Enterococcus sp.): 8 µg/mL (≈ 5.59 µM) | MIC Enterococccus faecalis (GC 4553) (Enterococcus sp.): 8 µg/mL (≈ 5.59 µM) | MIC Enterococccus faecalis (GC 4554) (Enterococcus sp.): 8 µg/mL (≈ 5.59 µM) | MIC Enterococccus faecalis (GC 6189) (Enterococcus sp.): 8 µg/mL (≈ 5.59 µM) | MIC Enterococccus faecium (GC 2243) (Enterococcus sp.): 8 µg/mL (≈ 5.59 µM) | MIC Enterococccus faecium (GC 4556) (Enterococcus sp.): 8 µg/mL (≈ 5.59 µM) | MIC Enterococccus faecium (GC 4557) (Enterococcus sp.): 8 µg/mL (≈ 5.59 µM) | MIC Enterococcus faecalis (GC 2242) (Enterococcus sp.): 8 µg/mL (≈ 5.59 µM) | MIC Streptococcus agalactiae (GC 4564) (Streptococcus sp.): 1 µg/mL (≈ 0.699 µM) | MIC Streptococcus pneumoniae (GC 1894) (Streptococcus sp.): <0.06 µg/mL | MIC Streptococcus pneumoniae (GC 4565) (Streptococcus sp.): <0.06 µg/mL | MIC Streptococcus pneumonine (ATCC 6301) (Streptococcus sp.): <0.06 µg/mL | MIC Streptococcus pyogenes (GC 4563) (Streptococcus sp.): 0.12 µg/mL (≈ 0.0838 µM) | MIC Coagulase Negative Staphylococcus (GC 4547) (Staphylococcus sp.; [1]): 8 µg/mL (≈ 5.59 µM) | MIC Coagulase Negative Staphylococcus (GC 4548) (Staphylococcus sp.; [1]): 8 µg/mL (≈ 5.59 µM) | MIC Coagulase Negative Staphylococcus (GC 4549) (Staphylococcus sp.; [1]): 8 µg/mL (≈ 5.59 µM) | MIC Coagulase Negative Staphylococcus (GC 4551) (Staphylococcus sp.; [1]): 8 µg/mL (≈ 5.59 µM) | MIC Coagulase Negative Staphylococcus (GC 6257) (Staphylococcus sp.; [1]): 8 µg/mL (≈ 5.59 µM) | MIC Staphylococcus aureus-SMITH (GC 4543) (Staphylococcus sp.; [1]): 8 µg/mL (≈ 5.59 µM) | MIC Staphylococcus aureus (ATCC 29213) (Staphylococcus sp.): 8 µg/mL (≈ 5.59 µM) | MIC Staphylococcus aureus (ATCC 29213) (Staphylococcus sp.; [2]): 8 µg/mL (≈ 5.59 µM) | MIC Staphylococcus aureus (GC 1131) (Staphylococcus sp.): 8 µg/mL (≈ 5.59 µM) | MIC Staphylococcus aureus (GC 1131) (Staphylococcus sp.; [2]): 8 µg/mL (≈ 5.59 µM) | MIC Staphylococcus aureus (GC 3051) (Staphylococcus sp.): 8 µg/mL (≈ 5.59 µM) | MIC Staphylococcus aureus (GC 3051) (Staphylococcus sp.; [2]): 8 µg/mL (≈ 5.59 µM) | MIC Staphylococcus aureus (GC 3053) (Staphylococcus sp.): 8 µg/mL (≈ 5.59 µM) | MIC Staphylococcus aureus (GC 3053) (Staphylococcus sp.; [2]): 8 µg/mL (≈ 5.59 µM) | MIC Staphylococcus aureus (GC 4541) (Staphylococcus sp.): 8 µg/mL (≈ 5.59 µM) | MIC Staphylococcus aureus (GC 4541) (Staphylococcus sp.; [2]): 8 µg/mL (≈ 5.59 µM) | MIC Staphylococcus aureus (GC 4542) (Staphylococcus sp.): 8 µg/mL (≈ 5.59 µM) | MIC Staphylococcus aureus (GC 4542) (Staphylococcus sp.; [2]): 8 µg/mL (≈ 5.59 µM) | MIC Staphylococcus aureus-SMITH (GC 4543) (Staphylococcus sp.; strain GC 4543, broth dilution, 18 hours at 35° C.): 8 µg/mL (≈ 5.59 µM) | MIC Staphylococcus aureus (GC 4544) (Staphylococcus sp.): 8 µg/mL (≈ 5.59 µM) | MIC Staphylococcus aureus (GC 4544) (Staphylococcus sp.; [2]): 8 µg/mL (≈ 5.59 µM) | MIC Staphylococcus aureus (GC 4545) (Staphylococcus sp.): 8 µg/mL (≈ 5.59 µM) | MIC Staphylococcus aureus (GC 4545) (Staphylococcus sp.; [2]): 8 µg/mL (≈ 5.59 µM) | MIC Coagulase Negative Staphylococcus (GC 4547) (Staphylococcus sp.; strain GC 4547, broth dilution, 18 hours at 35° C.): 8 µg/mL (≈ 5.59 µM) | MIC Coagulase Negative Staphylococcus (GC 4548) (Staphylococcus sp.; strain GC 4548, broth dilution, 18 hours at 35° C.): 8 µg/mL (≈ 5.59 µM) | MIC Coagulase Negative Staphylococcus (GC 4549) (Staphylococcus sp.; strain GC 4549, broth dilution, 18 hours at 35° C.): 8 µg/mL (≈ 5.59 µM) | MIC Coagulase Negative Staphylococcus (GC 4551) (Staphylococcus sp.; strain GC 4551, broth dilution, 18 hours at 35° C.): 8 µg/mL (≈ 5.59 µM) | MIC Coagulase Negative Staphylococcus (GC 6257) (Staphylococcus sp.; strain GC 6257, broth dilution, 18 hours at 35° C.): 8 µg/mL (≈ 5.59 µM)
Structure (SMILES): CC(C)=CCCC(C)CC1OCC2OC(OC3C(CO)OC(Oc4ccc(CC5NC(=O)C(C(C)c6ccccc6)NC(=O)CNC(=O)C(CO)NC(=O)C(C(O)C6CNC(=N)N6C6OC(CO)C(O)C(O)C6O)NC(=O)C(C(O)C6CNC(=N)N6)NC5=O)cc4)C(O)C3O)C(O)C(O)C2O1 (stereo not drawn) [Example 126, Cyclo[glycyl-β-methylphenylalanyl-O-[4-O-[4,6-O-[3,7-dimethyloct-6-en-1-ylidene)hexopyranosyl]hexopyranosyl]tyrosyl-3-(2-iminoimidazolidin-4-yl)seryl-3-(3-hexopyranosyl-2-iminoimidazolidin-4-yl)serylseryl]]
MIC Staphylococcus haemolyticus (GC 4546) (Staphylococcus sp.; [1]): 8 µg/mL (≈ 5.59 µM) | MIC Staphylococcus haemolyticus (GC 4546) (Staphylococcus sp.; strain GC 4546, broth dilution, 18 hours at 35° C.): 8 µg/mL (≈ 5.59 µM)
